Laboratory results published in the NIST ThermoML archive (doi:10.1016/j.jct.2018.12.021).

Assay: mn = molality of the nth substance listed, in mol/kg
Details: 100 kPa, Liquid; for electrical conductivity: Direct current cell with electrodes; for mass density: Vibrating tube method

CCCCCCCCCCCC[n+]1ccsc1.[Br-] [N-dodecylthiazolium bromide] + O
Details | electrical conductivity, 303.15 K [S/m] | electrical conductivity, 308.15 K [S/m] | electrical conductivity, 313.15 K [S/m] | mass density, 303.15 K [kg/m3] | mass density, 308.15 K [kg/m3] | mass density, 313.15 K [kg/m3]
m1 = 0.00122 | – | – | – | 995.67 | 994.05 | 992.22
m1 = 0.00157 | – | 0.018 | 0.0197 | 995.69 | 994.07 | 992.24
m1 = 0.00191 | – | – | – | 995.71 | 994.09 | 992.26
m1 = 0.00201 | – | 0.0229 | 0.025 | 995.72 | 994.1 | 992.27
m1 = 0.00258 | – | – | – | 995.75 | 994.14 | 992.3
m1 = 0.00299 | – | 0.0334 | 0.0366 | 995.78 | 994.17 | 992.33
m1 = 0.00326 | – | – | – | 995.8 | 994.18 | 992.35
m1 = 0.00407 | – | 0.0443 | 0.0485 | 995.85 | 994.24 | 992.4
m1 = 0.00429 | – | – | – | 995.87 | 994.25 | 992.42
m1 = 0.00507 | – | 0.0563 | 0.0614 | 995.92 | 994.3 | 992.46
m1 = 0.00548 | – | – | – | 995.95 | 994.33 | 992.49
m1 = 0.00602 | – | 0.0646 | 0.0703 | 995.98 | 994.36 | 992.52
m1 = 0.00698 | – | 0.0757 | 0.0838 | 996.04 | 994.42 | 992.58
m1 = 0.00753 | – | 0.0803 | 0.0904 | 996.08 | 994.46 | 992.62
m1 = 0.00905 | – | 0.0978 | 0.11 | 996.18 | 994.55 | 992.72
m1 = 0.01006 | – | 0.107 | 0.122 | 996.25 | 994.63 | 992.79
m1 = 0.01266 | – | 0.131 | 0.146 | 996.42 | 994.78 | 992.94
m1 = 0.01513 | 0.125 | 0.141 | 0.159 | 996.57 | 994.93 | 993.07
m1 = 0.01771 | 0.132 | 0.148 | 0.171 | 996.72 | 995.08 | 993.22
m1 = 0.01974 | 0.138 | 0.156 | 0.177 | 996.84 | 995.2 | 993.33
m1 = 0.02301 | 0.148 | 0.165 | 0.187 | 997.04 | 995.4 | 993.52
m1 = 0.02601 | 0.156 | 0.174 | 0.196 | 997.2 | 995.56 | 993.68
